Reference: US20060149064A1, “Process to prepare malayamycin derivatives” (priority 2003, published 2006)

How the values were obtained:
[1] = test system: Blumeria graminis f. sp. tritici (ERYSGT); assay: Foliar protectant test against Blumeria graminis f. sp. tritici (ERYSGT) on wheat; type: in vivo; conditions: 100 ppm foliar spray on wheat; inoculated 6 hours after application; banded assessment
Procedure: (§1) This Example illustrates the fungicidal properties of certain of the novel compounds of formula (I). The compounds were tested against a variety of foliar fungal diseases of plants. The technique employed was as follows. Plants were grown on an artificial, cellulose based growing medium. The test compounds were individually diluted in reverse osmosis water to a final concentration of 100 ppm in water (that is, 1 mg of compound in a final volume of 10 ml) immediately before use. TWEEN 20 (at a final concentration of 0.05% by volume) was added with the water to improve retention of the spray deposit. TWEEN is a registered trade mark. The compounds were applied to the foliage of the test plants by spraying the plant to maximum droplet retention. […] After chemical application and inoculation, the plants were incubated under high humidity conditions (except those inoculated with Blumeria graminis f. sp. tritici) and then put into an appropriate environment to allow infection to proceed until the disease was ready for assessment. […] However, each individual disease was assessed after the same time period for all compounds. […] The disease level present (the percentage leaf area covered by actively sporulating disease) was assessed visually. For each treatment, the assessed values for all its replicates were meaned to provide mean disease values. Untreated control plants were assessed in the same manner. […]

[2] = test system: Puccinia triticina (PUCCRT); assay: Foliar protectant test against Puccinia triticina (PUCCRT) on wheat; type: in vivo; conditions: 100 ppm foliar spray on wheat; inoculated one day after application; banded assessment
Procedure: as §1

[3] = test system: Stagonospora nodorum (LEPTNO); assay: Foliar protectant test against Stagonospora nodorum (LEPTNO) on wheat; type: in vivo; conditions: 100 ppm foliar spray on wheat; inoculated one day after application; banded assessment
Procedure: as §1

Structure (SMILES) | PRCO (percentage Disease Reduction from Control) ERYSGT 6 hour Protectant [1] | PRCO (percentage Disease Reduction from Control) PUCCRT 1 day Protectant [2] | PRCO (percentage Disease Reduction from Control) LEPTNO 1 day Protectant [3] | melting point
CO[C@H]1CO[C@H]2C(O)[C@H](c3c[nH]c(=O)[nH]c3=O)O[C@@H]2[C@@H]1NC(N)=O (stereo partly drawn) [compound 2, 6-epi-malayamycin A] | 50 | 100 | 45 | 
NC(=O)N[C@H]1[C@H]2O[C@@H](c3c[nH]c(=O)[nH]c3=O)C(O)[C@@H]2OC[C@H]1O (stereo partly shown) [compound 3, desmethylmalayamycin A] | 0 | 100 | 100 | 
CO[C@@H]1CO[C@H]2C(O)[C@H](c3c[nH]c(=O)[nH]c3=O)O[C@@H]2[C@@H]1NC(N)=O (stereo partly shown) [Compound No. 1, malayamycin A] |  |  |  | 158 °C (dec.)
